{"source": "paper PMC9916658", "about": "“Design and Synthesis of New Quinazolin-4-one Derivatives with Negative mGlu7 Receptor Modulation Activity and Antipsychotic-Like Properties” (International Journal of Molecular Sciences, 2023)", "key": {"[1]": {"biological_target": "T1, recombinant human mGlu7 receptor (FAST-0154C) (Homo sapiens, UniProt Q14831)", "T1 construct": "host or cells: CHO-K1", "T1 sequence (Q14831 35-915)": "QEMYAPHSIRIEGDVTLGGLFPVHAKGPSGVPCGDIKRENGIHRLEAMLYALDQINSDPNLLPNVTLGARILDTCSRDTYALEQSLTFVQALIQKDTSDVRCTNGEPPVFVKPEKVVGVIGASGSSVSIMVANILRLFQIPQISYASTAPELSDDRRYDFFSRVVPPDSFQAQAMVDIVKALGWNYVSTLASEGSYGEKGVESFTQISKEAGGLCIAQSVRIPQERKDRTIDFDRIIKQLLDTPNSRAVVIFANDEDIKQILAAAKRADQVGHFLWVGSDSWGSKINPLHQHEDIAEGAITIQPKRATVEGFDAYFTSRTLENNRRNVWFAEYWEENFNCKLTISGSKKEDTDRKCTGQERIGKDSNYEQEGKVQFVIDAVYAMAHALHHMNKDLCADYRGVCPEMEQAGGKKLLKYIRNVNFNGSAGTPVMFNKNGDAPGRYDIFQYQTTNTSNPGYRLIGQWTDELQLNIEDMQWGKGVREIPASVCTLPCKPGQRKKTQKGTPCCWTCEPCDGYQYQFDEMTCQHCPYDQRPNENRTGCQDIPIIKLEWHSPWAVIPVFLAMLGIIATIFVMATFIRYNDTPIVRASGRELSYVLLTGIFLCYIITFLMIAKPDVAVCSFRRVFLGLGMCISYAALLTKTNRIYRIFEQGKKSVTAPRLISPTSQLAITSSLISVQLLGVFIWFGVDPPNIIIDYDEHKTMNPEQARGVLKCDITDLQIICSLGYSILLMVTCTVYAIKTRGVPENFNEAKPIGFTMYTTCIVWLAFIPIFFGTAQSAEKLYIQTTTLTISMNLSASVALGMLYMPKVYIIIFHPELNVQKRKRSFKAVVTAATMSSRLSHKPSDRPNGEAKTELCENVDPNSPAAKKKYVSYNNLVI", "test": "NAM mGlu7 activity on CHO-K1 cell line, cAMP HTRF (EuroscreenFast protocol)", "assay_type": "cell-based", "conditions": "CHO-K1 human mGlu7, agonist L-AP4 at EC80", "excerpt": "with inducible expression of human mGlu7 receptor. […]\n2.2. NAM mGlu7 receptor activity on CHO-K1 cell line according to EuroscreenFast protocol\nALX-065 and ALX-171 were testing for negative allosteric modulator (NAM) activity on alternative […]\nmGlu7 cell line (recombinant human mGlu7 receptor (FAST-0154C) using cAMP HTRF functional assay) […]\nby EuroscreenFast company according to the provided methodology.\nReceptor Accession Cell line Reference Reference\nNumber agonist antagonist\nCompounds were tested for NAM activity at the human mGlu7 receptor (FAST-0154C) in dose […]\nresponse and in duplicates (range concentration: 1 nM – 25 µM) […]\ncAMP HTRF assay for Gi coupled receptor\nCHO-K1 cells expressing recombinant human mGlu7 receptor (FAST-0154C) grown prior to the test […]\ninmedia without antibiotic are detached by gentle flushing with PBS-EDTA (5 mM EDTA), recovered […]\nby centrifugation and resuspended in assay buffer (KRH: 5 mM KCl, 1.25 mM MgSO4, 124 mM NaCl, […]\n25 mM HEPES, 13.3 mM Glucose, 1.25 mM KH2PO4, 1.45 mM CaCl2, 0.5 g/L BSA, supplemented with 1 […]\nDose response curves are performed in parallel with the reference compounds.\nFor antagonist/NAM test (96 well): 12 µl of cells are mixed with 6 µl of the test compound at increasing concentrations and then incubated 10 min. Thereafter 6 µl of the mix of the forskolin and reference agonist is added at a final concentration corresponding to the historical EC80. The plates are then incubated for 30 min at room temperature. After addition of the lysis buffer and 1 hour incubation, cAMP concentrations are estimated, according to the manufacturer specification, with the HTRF kit. […]"}, "[2]": {"test": "Pharmacokinetics and brain uptake in mice after i.p. administration", "assay_type": "in vivo, mouse (Albino Swiss)", "conditions": "mouse Albino Swiss, 10 mg/kg i.p.; for AUC(0-t): ip", "procedure": "Compounds were administered to mice at a dose of 10 mg/kg i.p. Plasma and tissue samples were collected at 0.25, 0.50, 1.0, 2.0, 4.0, 6.0, and 24 h. Plasma and tissue samples from all drug-treated animals were thawed at room temperature prior to use. The standard protocol for sample preparation was used: 200 μL of acetonitrile was added to the Eppendorf tubes with 50 μL of studied plasma samples or tissue homogenate. Samples were mixed for 5 min on a mixer at 25 °C and 1400 rpm. The tubes were then centrifuged at 2000× g for 15 min at 4 °C. A total of 180 μL of each supernatant was transferred to a plate well. Finally, each sample was injected into the LC–MS column. Calibration curve serial dilution method: Plasma was spiked with a standard at different concentrations. Acetonitrile was added. After mixing and centrifugation, the supernatant was collected.\nChromatographic conditions. Plasma and tissue samples from all drug-treated animals at selected time points were analyzed using a previously developed nonvalidated LC–MS/MS method. […] The LC–MS analysis was carried out on a Bruker amaZon SL mass spectrometer using the positive/negative ion ESI mode. Chromatographic separation was achieved on an Ascentis Express C18 column (5 cm × 2.1 mm, 2.7 μM, Supelco Technologies) at room temperature with a thermostatted column oven. A gradient elution of eluents A (acetonitrile (LiChrosolv, Reag. Ph Eur) + 0.1% formic acid (Sigma Aldrich, 98–100%)) and B (water + 0.1% formic acid) were used for separation. The flow rate was set at 1 mL/min. The injection volume was 20 μL, and the time of injection was 4 min.\nMass spectrometric conditions. An ion trap mass spectrometer (Bruker amaZon SL, Bruker, Bremen, Germany) was equipped with an electrospray source operating in the positive/negative ion mode. Data were collected and processed using Bruker Quant Analysis (Bruker, Bremen, Germany) software. A quantification of the analytes was performed in the SIM mode."}, "[3]": {"test": "Kinetic solubility assay in HBSS buffer", "assay_type": "physicochemical", "conditions": "aqueous buffer, kinetic from dmso stock; Hanks-HEPES (HBSS buffer), pH 7.4; read-out: KS (kinetic solubility)", "procedure": "The kinetic solubility assay was performed to determine the solubility of the compounds in the in vitro assay conditions. The assay investigated the solubility based on the precipitation process in the HBSS buffer. For the preparation of the assay buffer, the following compounds were dissolved in 800 mL purified water: • − 130 mM sodium chloride, NaCl (7.600 g); • − 5.4 mM potassium chloride, KCl (0.403 g); • − 0.8 mM magnesium sulfate, MgSO4 × 7H2O (0.197 g); • − 0.9 mM sodium phosphate monobasic, NaH2PO4 × 2H2O (0.140 g); • − 25 mM D-glucose (4.500 g); • − 20 mM HEPES sodium salt (5.210 g).\nThe buffer was adjusted to pH 7.4, and the following compound was added to the mixture: • − 1.8 mM calcium chloride, CaCl2 × 2H2O (0.265 g).\nThe total volume was adjusted to 1000 mL.\nThe investigated compounds were diluted (in triplicate) with the HBSS buffer at pH 7.4 to a final concentration of 500 μM.\nThe mixture was shaken on a filter plate at 500 rpm for 1.5 h at RT. After incubation, the filter plate was placed inside a vacuum manifold and filtrated. Samples were collected and the concentration of the filtrate was determined spectrophotometrically by measuring the UV–VIS absorption spectrum. Concentrations were calculated based on equations resulting from the calibration curves (in duplicates, 8 calibration points, dilution Factor ×2, 500 µM → 3.91 µM, including blank sample)."}, "[4]": {"system": "animal models of schizophrenia", "conditions": "cited from earlier work"}, "[5]": {"test": "Metabolic stability in mouse microsomal fraction", "assay_type": "in vitro ADME", "conditions": "1 µM, mouse microsomes 0.3 mg/mL, NADPH-regenerating system", "procedure": "A metabolic stability assay was performed using a mouse microsomal fraction (phase I of metabolism) obtained from XenoTech (Kansas City, MO, USA). Compounds for metabolic stability testing were prepared as 10 mM stock solutions in DMSO. Compounds were incubated in triplicate at a 1 µM initial concentration with the microsomal fraction in the presence of NRS (NADPH-regenerating system, 1.3 mM). The final microsomal incubation (0.3 mg/mL) contained the components mentioned below in a pH 7.4 phosphate buffer. Control incubations were conducted without cofactors. The reference compound verapamil was used as a positive control. Incubations were carried out for 1 h on 96-well plates using a heated (+37 °C) orbital shaker (350 rpm). After incubation, the reaction was quenched through the addition of cold acetonitrile. The plate containing the samples was centrifuged at 2000 rpm for 15 min at 4 °C. The supernatants were analyzed using LC–MS.\nThe HPLC–MS consisted of a Dionex, Ultimate 3000 HPLC, and a Bruker Daltonics amaZon SL mass spectrometer (ESI-IT). The conditions were as follows: Column HPLC Ascentis Express C18 (5 cm × 2.1 mm, 2.7 µm) and an injection volume of 20 µL. An acetonitrile gradient was used with 0.1% formic acid in water at a constant flow rate of 1 mL/min. The programming was as follows: 0–0.5 min 5% ACN, 0.5–3.0 increase of 5–95%, 3.0–3.3 remaining at 95% ACN, 3.3–3.4 min decrease of 95–5% ACN, and 3.4–4.0 min 5% ACN. Samples were analyzed in a single-ion monitoring scan mode in positive mode. The conditions of the main parameters were as follows: a trap drive of 48.2, capillary exit voltage of 140.0 V, dry temperature (set) of 300 °C, nebulizer pressure (set) of 40.00 psi, dry gas flow (set) of 9.00 L/min HV capillary voltage of −4500 V, HV end-plate offset voltage of −500 V.\nThe percent loss of compounds was calculated through the normalization of the peak area against time 0, where the peak area at T0 was 100%. The elimination rate constant (h) was determined from the plot of ln (percent loss of compound) as a time function and equal to the minor value of the linear curve slope."}}, "note": "Read-outs that look alike come from different tables or passages of the source."}
{"smiles": "COc1ccc(-c2cc3onc(-c4ccncc4)c3c(=O)n2C)cc1", "note": "[MMPIP, reference compound]", "values": [{"measurement": "% inhibition at maximal concentration", "setting": "[1]; range 1 nM – 25 µM", "result": 100, "unit": "%"}, {"measurement": "IC50", "setting": "[1]; read-out: IC50 (CHO-K1, Figure S4)", "result": 270, "unit": "nM"}, {"measurement": "AUC(0-t)", "setting": "[2]; brain, read-out: AUC0-t, brain", "result": 8.98, "unit": "µM·h"}, {"measurement": "AUC(0-t)", "setting": "[2]; plasma, read-out: AUC0-t, plasma", "result": 13.5, "unit": "µM·h"}, {"measurement": "Cmax, brain", "setting": "[2]; brain", "result": 5.42, "unit": "µM/L"}, {"measurement": "Tmax, plasma", "setting": "[2]; plasma", "result": 15, "unit": "min"}, {"measurement": "solubility kinetic at 1.5 h", "setting": "[3]", "result": 5.6, "unit": "µM"}, {"measurement": "MK-801-induced disruptions in social interaction", "setting": "[4]", "result": "not observed"}, {"measurement": "prepulse inhibition (PPI)", "setting": "[4]", "result": "not observed"}, {"measurement": "activity in animal models of schizophrenia", "setting": "[4]; mGlu7 NAMs", "result": "antipsychotic activity"}, {"measurement": "MML (metabolic stability liver microsome mouse)", "setting": "[5]", "result": 49.78, "unit": "% remaining after 60 min"}]}
